Results taken from US20230227466A1, “SUBSTITUTED THIENOPYRIMIDINES THAT INTERACT WITH THE RAS SUPERFAMILY FOR THE TREATMENT OF CANCERS, INFLAMMATORY DISEASES, RASOPATHIES, AND FIBROTIC DISEASE” (SHY Therapeutics, LLC, priority 2020, published 2023).
Where two headings read alike, the source gives them in different places.

Key:
KRas Q61H mutant = biological target: T1, KRas Q61H mutant (Homo sapiens, UniProt P01116, Q61H); assay: Ras GTP binding domain inhibition assay (labeled-GTP competition, cell-free)
T1 construct: made in house
Method in brief: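 Immobilized His-tagged protein (Ni plate, 10-30 μg/mL, overnight 4° C); compound 20 μM or dilution series, 1% DMSO, 3 h RT, ±Sos 556-1049 last hour; Cy3/Cy5-GTP 100 nM, 45 min RT; 3× wash; bound fluorescence read.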

[1] = system: ERK1/2 phosphorylation in Panc-1 cells; assay: Western ERK1/2 cell-based phosphorylation assay; parameters: species or system human; conditions: at 10 μM, values in brackets < > are activation %, not inhibition
Method: Cell lines: Human tumor-derived pancreatic cancer cell line Panc-1 was purchased from American Type Culture Collection and grown in complete DMEM-High Glucose, supplemented with penicillin (100 U/mL), streptomycin (100 μg/mL), and 10% heat-inactivated FBS at 37° C. in a humidified incubator with 5% CO2.
Method: Cells were plated at 350000 cells/well density in a 12-well plate, allowed 3 hours to adhere to the plate, then starved in the appropriate medium in the presence of 0.5% FBS overnight. The small molecules to be tested were added to the cells in the final concentration of 10 μM in the presence of 0.3% DMSO for 6 hours incubation at 37° C. For IC50 value determination, serial dilutions of compounds were added to cells under the same conditions. Next, cells were stimulated with 1.5 ng/ml EGF for 15 minutes then cells were lysed with lysis buffer containing 1% Triton X-100, EDTA, and Halt™ Protease & Phosphatase Inhibitor Cocktail (Thermo Scientific). Protein concentration was assessed by BCA protein assay (Thermo Scientific). Phosphorylation level of ERK1/2 was determined by western blot.
Western blot protocol: Equal amounts of protein (15-50 μg) were separated by SDS-PAGE and transferred to nitrocellulose membranes (Invitrogen by Thermo Fisher Scientific). The membrane was stained with Ponceau S Stain (Boston BioProducts) to verify uniform protein loading. Membranes were blocked with 10% milk and phosphorylation levels of ERK1/2 were assessed by incubating overnight at 4° C. with anti-phospho-p44/42 (Thr202/Tyr204) antibody (Cell Signaling) followed by HRP-conjugated secondary antibody (Jackson Immunoresearch, West Grove, Pa.). Bands were incubated in Amersham ECL Prime Western Blotting Detection Reagent (GE Healthcare) and visualized using the ChemiDoc MP imaging system (Bio-Rad). Protocol for Western AKT cell-based phosphorylation assay

[2] = with SOS, read-out: KRas Q61H mutant + SOS: % inh.
[3] = without SOS, read-out: KRas Q61H mutant: % inh.

SMILES	inhibition at 20 µM (KRas Q61H mutant; [2]) [%]	inhibition at 20 µM (KRas Q61H mutant; [3]) [%]	IC50 (KRas Q61H mutant; with SOS) [µM]	% inh of ERK1/2 phosphorylation in PANC-1 [1]
Cc1c(-c2ccn(C(C)C)n2)sc2nc(-c3nccn3C)nc(NC3CCOC3)c12 (racemic) [Compound 37, rac-6-(1-Isopropyl-1H-pyrazol-3-yl)-5-methyl-2-(1-methyl-1H-imidazol-2-yl)-N-(tetrahydrofuran-3-yl)thieno[2,3-d]pyrimidin-4-amine]	76 to 100	76 to 100	–	0 (0% inhibition)
COCC1COCCN1c1nc(-c2nccn2C)nc2sc(-c3ccn(C(C)C)n3)c(C)c12 (racemic) [Compound 41, rac-4-(6-(1-Isopropyl-1H-pyrazol-3-yl)-5-methyl-2-(1-methyl-1H-imidazol-2-yl)thieno[2,3-d]pyrimidin-4-yl)-3-(methoxymethyl)morpholine]	26 to 50	51 to 75	–	0 (0% inhibition)
COCC1CN(c2nc(-c3nccn3C)nc3sc(-c4ccn(C(C)C)n4)c(C)c23)CCO1 (racemic) [Compound 45, rac-4-(6-(1-Isopropyl-1H-pyrazol-3-yl)-5-methyl-2-(1-methyl-1H-imidazol-2-yl)thieno[2,3-d]pyrimidin-4-yl)-2-(methoxymethyl)morpholine]	76 to 100	76 to 100	–	B (26-50% inhibition)
Cc1c(-c2ccn(C(C)C)n2)sc2nc(-c3nccn3C)nc(NCCC3CCC(=O)N3)c12 (racemic) [Compound 56, rac-5-(2-((6-(1-Isopropyl-1H-pyrazol-3-yl)-5-methyl-2-(1-methyl-1H-imidazol-2-yl)thieno[2,3-d]pyrimidin-4-yl)amino)ethyl)pyrrolidin-2-one]	76 to 100	51 to 75	–	0 (0% inhibition)
CO[C@@H]1CC[C@H]1CNc1nc(-c2nccn2C)nc2sc(-c3ccn(C(C)C)n3)c(C)c12 (racemic) [Compound 61, rac-6-(1-Isopropyl-1H-pyrazol-3-yl)-N-(((1S,2R)-2-methoxycyclobutyl)methyl)-5-methyl-2-(1-methyl-1H-imidazol-2-yl)thieno[2,3-d]pyrimidin-4-amine]	76 to 100	76 to 100	–	D (76-100% inhibition)
Cc1c(-c2ccn(C(C)C)n2)sc2nc(-c3nccn3C)nc(N3CCC(COC(C)C)C3)c12 (racemic) [Compound 62, rac-4-(3-(Isopropoxymethyl)pyrrolidin-1-yl)-6-(1-isopropyl-1H-pyrazol-3-yl)-5-methyl-2-(1-methyl-1H-imidazol-2-yl)thieno[2,3-d]pyrimidine]	51 to 75	76 to 100	–	D (76-100% inhibition)
COC1CCCN(c2nc(-c3ccccn3)nc3sc(-c4ccn(C(C)C)n4)c(C)c23)C1 (racemic) [Compound 70, Rac-6-(1-Isopropyl-1H-pyrazol-3-yl)-4-(3-methoxypiperidin-1-yl)-5-methyl-2-(pyridin-2-yl)thieno[2,3-d]pyrimidine]	26 to 50	26 to 50	–	0 (0% inhibition)
COCC1CCN(c2nc(-c3ccccn3)nc3sc(-c4ccn(C(C)C)n4)c(C)c23)C1 (racemic) [Compound 71, Rac-6-(1-Isopropyl-1H-pyrazol-3-yl)-4-(3-(methoxymethyl)pyrrolidin-1-yl)-5-methyl-2-(pyridin-2-yl)thieno[2,3-d]pyrimidine]	51 to 75	26 to 50	–	D (76-100% inhibition)

The next lines start with results.

inhibition at 20 µM (KRas Q61H mutant; [2]) [%]	inhibition at 20 µM (KRas Q61H mutant; [3]) [%]	IC50 (KRas Q61H mutant; with SOS) [µM]	SMILES	% inh of ERK1/2 phosphorylation in PANC-1 [1]
76 to 100	76 to 100	1 to 4.99	COCCn1ccnc1-c1nc(N[C@@H]2CC[C@H](OC)C2)c2c(-c3ccccc3)c(-c3ccn(C)n3)sc2n1 (racemic) [Compound 6, Rac-N-((1R,3S)-3-methoxycyclopentyl)-2-(1-(2-methoxyethyl)-1H-imidazol-2-yl)-6-(1-methyl-1H-pyrazol-3-yl)-5-phenylthieno[2,3-d]pyrimidin-4-amine]	D (76-100% inhibition)
76 to 100	76 to 100	1 to 4.99	COCCn1ccnc1-c1nc(N[C@@H]2CC[C@H](OC)C2)c2ccsc2n1 (racemic) [Compound 8, Rac-N-((1R,3S)-3-methoxycyclopentyl)-2-(1-(2-methoxyethyl)-1H-imidazol-2-yl)thieno[2,3-d]pyrimidin-4-amine]	0 (0% inhibition)
76 to 100	51 to 75	5 to 10	CO[C@H]1CC[C@@H](Nc2nc(-c3nccn3C)nc3sccc23)C1 (racemic) [Compound 10, Rac-N-((1R,3S)-3-methoxycyclopentyl)-2-(1-methyl-1H-imidazol-2-yl)thieno[2,3-d]pyrimidin-4-amine]	A (1-25% inhibition)
0	0	> 10	CO[C@H]1CC[C@@H](Nc2nc(C(N)=O)nc3sccc23)C1 (racemic) [Compound 11, Rac-4-(((1R,3S)-3-methoxycyclopentyl)amino)thieno[2,3-d]pyrimidine-2-carboxamide]	0 (0% inhibition)
0	1 to 25	> 10	CO[C@H]1CC[C@@H](Nc2nc(C(=O)N3CCOCC3)nc3sccc23)C1 (racemic) [Compound 12, Rac-(4-(((1R,3S)-3-methoxycyclopentyl)amino)thieno[2,3-d]pyrimidin-2-yl)(morpholino)methanone]	0 (0% inhibition)
0	0	> 10	CO[C@H]1CC[C@@H](Nc2nc(C(=O)NC(C)C)nc3sccc23)C1 (racemic) [Compound 13, Rac-N-isopropyl-4-(((1R,3S)-3-methoxycyclopentyl)amino)thieno[2,3-d]pyrimidine-2-carboxamide]	0 (0% inhibition)
1 to 25	0	> 10	COCCNC(=O)c1nc(N[C@@H]2CC[C@H](OC)C2)c2ccsc2n1 (racemic) [Compound 14, rac-4-(((1R,3S)-3-Methoxycyclopentyl)amino)-N-(2-methoxyethyl)thieno[2,3-d]pyrimidine-2-carboxamide]	0 (0% inhibition)
0	1 to 25	> 10	CO[C@H]1CC[C@@H](Nc2nc(C(=O)Nc3ccccc3)nc3sccc23)C1 (racemic) [Compound 15, rac-4-(((1R,3S)-3-Methoxycyclopentyl)amino)-N-phenylthieno[2,3-d]pyrimidine-2-carboxamide]	0 (0% inhibition)
0	1 to 25	> 10	CO[C@H]1CC[C@@H](Nc2nc(C(=O)Nc3ccccn3)nc3sccc23)C1 (racemic) [Compound 16, rac-4-(((1R,3S)-3-Methoxycyclopentyl)amino)-N-(pyridin-2-yl)thieno[2,3-d]pyrimidine-2-carboxamide]	0 (0% inhibition)
0	1 to 25	> 10	CO[C@H]1CC[C@@H](Nc2nc(C(N)=O)nc3sc(-c4ccn(C(C)C)n4)cc23)C1 (racemic) [Compound 17, Rac-6-(1-isopropyl-1H-pyrazol-3-yl)-4-(((1R,3S)-3-methoxycyclopentyl)amino)thieno[2,3-d]pyrimidine-2-carboxamide]	A (1-25% inhibition)
0	0	–	CO[C@H]1CC[C@@H](Nc2nc(C(=O)N3CCCC3)nc3sccc23)C1 (racemic) [Compound 25, Rac-(4-(((1R,3S)-3-Methoxycyclopentyl)amino)thieno[2,3-d]pyrimidin-2-yl)(pyrrolidin-1-yl)methanone]	0 (0% inhibition)
51 to 75	51 to 75	–	CO[C@H]1CC[C@@H](Nc2nc(-c3nccn3C)nc3sc(-c4ccn(C(C)C)n4)c(C(F)(F)F)c23)C1 (racemic) [Compound 73, Rac-6-(1-isopropyl-1H-pyrazol-3-yl)-N-((1R,3S)-3-methoxycyclopentyl)-2-(1-methyl-1H-imidazol-2-yl)-5-(trifluoromethyl)thieno[2,3-d]pyrimidin-4-amine]	D (76-100% inhibition)
